Test results taken from US20250069757A1, “METHOD OF PREDICTING ADAS-COG SCORE” (WisTa Laboratories Ltd., priority 2021, published 2025).

Columns and labels:
Alzheimer's disease [1] = experiment: phase III clinical trials (TRx-237-005 and TRx-237-015) for Alzheimer's disease; assay type: in vivo, patients; conditions: 8, 150, 200 or 250 mg/day; both trials
Description: Data from a phase III clinical trials (TRx-237-005 and TRx-237-015) for Alzheimer's disease was obtained. These clinical trials involved 1162 patients. Before the trials began, each patient's baseline measurements were collected, which included the patient's sex, age, baseline ADAS-Cog and mini-mental state examination (MMSE) score.
Patients were subsequently categorised into those with ‘low’ and ‘high’ plasma levels using a threshold based on the lower limit of quantitation of the assay on Day 1. […] Additionally, each patient entered the trial either already using the standard care of therapy or not. This yielded D=4 possible combinations: “low-using”, “low-none”, “high-using” and “high-none”. The trial spanned 5 visits with 13 weeks in between each visit. At each visit t, every patient i's progressive ADAS-Cog score, Yti∈ ? , was measured and recorded.

Alzheimer's disease [2] = conditions: cited from earlier work
[3] = group with 'high' plasma levels, threshold based on lower limit of quantitation of the assay on Day 1

CN(C)c1ccc2c(c1)Sc1cc(N(C)C)ccc1N2.CS(=O)(=O)O.CS(=O)(=O)O [LMTM]
dose-response (Alzheimer's disease [1]): lack of dose-response
concentration-response relationships for steady-state plasma levels (Alzheimer's disease [2]; 8 mg/day range): steep concentration-response relationships
differences in brain atrophy (Alzheimer's disease [2]; [3]): highly significant differences
differences in cognitive decline (Alzheimer's disease [2]; [3]): highly significant differences
